Assay results published in ChEMBL document CHEMBL1201862, “PubChem BioAssay data set” (2004).
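Where inhibition never reached the appropriate level, the endpoint shown equals the highest concentration tested. Otherwise, values were interpolated linearly from a five-concentration, 48-hour dose response in 96-well plates. GI50 marks 50% less growth.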 Active and inactive are the calls of the source. No stated cut-off is given here; in the data, active = GI50 up to about 1.1 µM and inactive = higher.

Legend:
Assay in all cases: NCI tumour cell line growth inhibition, 48 h
A498 = system: A498
ACHN = system: ACHN
DLD-1 = system: DLD-1
DMS-114 = system: DMS-114
EKVX = system: EKVX
HCT-116 = system: HCT-116
HT-29 = system: HT-29
LXFL 529 = system: LXFL 529
M19-MEL = system: M19-MEL
NCI-H460 = system: NCI-H460
OVCAR-4 = system: OVCAR-4
SK-MEL-28 = system: SK-MEL-28
SK-MEL-2 = system: SK-MEL-2
SK-OV-3 = system: SK-OV-3
SN12C = system: SN12C
DMS-273 = system: DMS-273
SK-MEL-5 = system: SK-MEL-5
NCI/ADR-RES = system: NCI/ADR-RES

Row | Compound | GI50 (A498) | GI50 (ACHN) | GI50 (DLD-1) | GI50 (DMS-114) | GI50 (EKVX) | GI50 (HCT-116) | GI50 (HT-29) | GI50 (LXFL 529) | GI50 (M19-MEL) | GI50 (NCI-H460) | GI50 (OVCAR-4) | GI50 (SK-MEL-28) | GI50 (SK-MEL-2) | GI50 (SK-OV-3) | GI50 (SN12C) | GI50 (DMS-273) | GI50 (SK-MEL-5) | GI50 (NCI/ADR-RES)
1 | O=c1ccc2ccccc2o1 [COUMARIN] | > 100 µM (inactive) | > 100 µM (inactive) | > 100 µM (inactive) | > 100 µM (inactive) | > 100 µM (inactive) | > 100 µM (inactive) | > 100 µM (inactive) | > 100 µM (inactive) | > 100 µM (inactive) | > 100 µM (inactive) | > 100 µM (inactive) | > 100 µM (inactive) | > 100 µM (inactive) | > 100 µM (inactive) | > 100 µM (inactive) |  |  | 
2 | Cc1ccc(/C=C/C(=O)c2ccc([N+](=O)[O-])cc2)cc1 | 0.815 µM (active) | > 100 µM (inactive) | 99.8 µM (inactive) |  | > 100 µM (inactive) | > 100 µM (inactive) | > 100 µM (inactive) | 74.3 µM (inactive) | > 100 µM (inactive) | > 100 µM (inactive) | > 100 µM (inactive) | > 100 µM (inactive) | > 100 µM (inactive) | > 100 µM (inactive) | > 100 µM (inactive) | > 100 µM (inactive) | > 100 µM (inactive) | 
3 | CC(C)=CCc1c(O)ccc2c1OC1c3ccc(O)c(CC=C(C)C)c3OCC21 (configuration not stated) | 11.9 µM (inactive) |  | 5.19 µM (inactive) | 11.4 µM (inactive) | 5.62 µM (inactive) | 5.12 µM (inactive) | > 44.4 µM (inactive) |  | 11.4 µM (inactive) | 5.15 µM (inactive) | 11.2 µM (inactive) | 13.4 µM (inactive) | 18 µM (inactive) | 19.2 µM (inactive) | 14 µM (inactive) | 6.4 µM (inactive) | 5.98 µM (inactive) | 8.09 µM (inactive)
4 | CC(=O)Nc1ccc(-c2nnc(SCC(=O)Nc3ccccc3)o2)cc1 |  | > 100 µM (inactive) | 59 µM (inactive) | 39.8 µM (inactive) |  | 31.2 µM (inactive) | 60.5 µM (inactive) | 34.6 µM (inactive) | 74.8 µM (inactive) | > 100 µM (inactive) | > 100 µM (inactive) | > 100 µM (inactive) | > 100 µM (inactive) | > 100 µM (inactive) | 90.4 µM (inactive) | 50.6 µM (inactive) | 69 µM (inactive) | 
5 | CC1=NN(C(=O)c2ccc(Cl)cc2)C(=O)/C1=C/c1cccc([N+](=O)[O-])c1 | > 100 µM (inactive) | > 100 µM (inactive) | > 100 µM (inactive) | > 100 µM (inactive) | > 100 µM (inactive) | > 100 µM (inactive) | > 100 µM (inactive) | > 100 µM (inactive) | > 100 µM (inactive) | > 100 µM (inactive) | > 100 µM (inactive) | > 100 µM (inactive) | > 100 µM (inactive) | > 100 µM (inactive) | > 100 µM (inactive) |  | > 100 µM (inactive) | 
6 | O=[N+]([O-])c1ccc(Nc2cccc3c4cc[nH]c(-c5ccccc5)c-4nc23)c([N+](=O)[O-])c1 | > 100 µM (inactive) |  | > 100 µM (inactive) | > 100 µM (inactive) | > 100 µM (inactive) | > 100 µM (inactive) | > 100 µM (inactive) |  | > 100 µM (inactive) | > 100 µM (inactive) | > 100 µM (inactive) | > 100 µM (inactive) | > 100 µM (inactive) | > 100 µM (inactive) | > 100 µM (inactive) | > 100 µM (inactive) | > 100 µM (inactive) | > 100 µM (inactive)
7 | [O-]c1on[n+]2c1c(Nc1ccc(Cl)cc1)nc1ccccc12 | > 100 µM (inactive) | > 100 µM (inactive) | > 100 µM (inactive) | > 100 µM (inactive) | > 100 µM (inactive) | > 100 µM (inactive) | > 100 µM (inactive) | > 100 µM (inactive) | > 100 µM (inactive) | > 100 µM (inactive) | > 100 µM (inactive) | > 100 µM (inactive) |  | > 100 µM (inactive) | > 100 µM (inactive) | > 100 µM (inactive) | > 100 µM (inactive) | 
8 | Cc1c(C2=NN=C(/N=N/c3c(O)cccc3O)/C2=C/c2ccccc2)c(=O)n(-c2ccccc2)n1C | > 100 µM (inactive) |  | > 100 µM (inactive) | > 100 µM (inactive) | > 100 µM (inactive) | > 100 µM (inactive) | > 100 µM (inactive) |  | > 100 µM (inactive) | > 100 µM (inactive) | > 100 µM (inactive) | > 100 µM (inactive) | > 100 µM (inactive) | > 100 µM (inactive) | > 100 µM (inactive) | > 100 µM (inactive) | > 100 µM (inactive) | > 100 µM (inactive)
9 | C/C=C1/C(=Cc2[nH]c(C=c3[nH]/c(=C/C4=NC(=O)C(CC)=C4C)c(C)c3CCC(=O)O)c(CCC(=O)O)c2C)NC(=O)C1C (configuration not stated) |  | 13.7 µM (inactive) | 2.58 µM (inactive) | 19.1 µM (inactive) | 30.6 µM (inactive) | 2.13 µM (inactive) | 5.11 µM (inactive) | 2.06 µM (inactive) | 10.9 µM (inactive) | 13 µM (inactive) | 11.1 µM (inactive) | 47.6 µM (inactive) | 9.08 µM (inactive) | 42.1 µM (inactive) | 3.3 µM (inactive) | 5.45 µM (inactive) |  | 
10 | COC(=O)C1=C(C(=O)OC)SC(=C(/N=N/c2ccccc2)c2ccccc2)S1 | > 100 µM (inactive) | 80.9 µM (inactive) | > 100 µM (inactive) |  | > 100 µM (inactive) | > 100 µM (inactive) | > 100 µM (inactive) | 58.5 µM (inactive) | > 100 µM (inactive) | > 100 µM (inactive) | > 100 µM (inactive) | > 100 µM (inactive) | > 100 µM (inactive) | > 100 µM (inactive) | > 100 µM (inactive) | > 100 µM (inactive) | > 100 µM (inactive) | 
11 | O=C1c2cccc3c2C(=O)c2c(cccc21)OCCOCCOCCOCCO3 |  | 78.5 µM (inactive) | > 100 µM (inactive) | 86.1 µM (inactive) | > 100 µM (inactive) | > 100 µM (inactive) | > 100 µM (inactive) | > 100 µM (inactive) | > 100 µM (inactive) | 78.3 µM (inactive) | 74.6 µM (inactive) |  | > 100 µM (inactive) | > 100 µM (inactive) | > 100 µM (inactive) | > 100 µM (inactive) | 75.7 µM (inactive) | 
12 | Cc1nc(-n2nc(-c3ccccc3)cc2-c2ccccc2)sc1C(=O)/C=C/c1ccc(Cl)c(Cl)c1 |  | 23.7 µM (inactive) | 13.4 µM (inactive) | 33.3 µM (inactive) | 27 µM (inactive) | 26.7 µM (inactive) | > 10 µM (inactive) | 15.3 µM (inactive) | 51.6 µM (inactive) | > 100 µM (inactive) | 21.1 µM (inactive) | 31.3 µM (inactive) | 41.7 µM (inactive) | > 100 µM (inactive) | 15.7 µM (inactive) | 32.2 µM (inactive) |  | 
